Experimental data: patent US20120130146A1, “CONTINUOUS ADMINISTRATION OF CILENGITIDE IN CANCER TREATMENTS” (Merck Patent GmbH, priority 2009, published 2012)
Where “and” joins values, the source holds several entries; their conditions need not be identical. Equal entries are not always repeated.

Assay: Continuous infusion study pharmacokinetics (plasma)
Assay type: in vivo, human
Conditions: for EMD 121974 Concentrations / CL / V / ke / Css: individual subjects; for CL: CL=Rate/Css; for V, Mean / ke, Mean / V: t1/2 = 4 hours; for V: V=CL/ke; for ke: for t1/2 = 4 hours; for Css: mean of 168 h to 506 h values per patient
Procedure: Patients with solid tumors received a continuous infusion of 1 mg/h, 2 mg/h, 4 mg/h, 8 mg/h or 12 mg/h. with a weekly change of infusion bag.
Blood samples were taken on Day 1 (first dose) at pre-dose and 2 h after start of infusion and then weekly just before change of infusion bag and 2 hours thereafter for the first 4 weeks.
The following pharmacokinetic parameters were derived at Merck KGaA. Darmstadt, Germany, by mathematical methods using Kinetica Version 4.1.1.
CL the total body clearance of EMD 121974 from plasma Css plasma concentration at steady state ke elimination rate constant Rate infusion rate t1/2, half life V Volume of distribution
Css, the plasma concentration at steady state, has been estimated by the arithmetic mean of all concentration values from time point 168 h to 506 h per patient.
From Css and t1/2 the PK parameters CL, ke and V were calculated as follows: […]

[1] = Rate 1 mg/h, listed as EMD 121974
[2] = Rate 2 mg/h, listed as EMD 121974
[3] = Rate 4 mg/h, listed as EMD 121974
[4] = Rate 8 mg/h, listed as EMD 121974

## CC(C)[C@H]1C(=O)N[C@@H](CCCN=C(N)N)C(=O)NCC(=O)N[C@@H](CC(=O)O)C(=O)N[C@H](Cc2ccccc2)C(=O)N1C [Cilengitide, cyclo-(Arg-Gly-Asp-DPhe-NMeVal)]
12 mg/h dose level and below
  Mean values for half-life, clearance, and volume of distribution across dose levels: comparable across dose levels
Rate 1 mg/h, 0 h (pre-dose)
  EMD 121974 Concentrations: Undetectable
Rate 1 mg/h, 2 h, listed as EMD 121974
  EMD 121974 Concentrations: 42.90 ng/mL and Undetectable
Rate 1 mg/h, 168 h, listed as EMD 121974
  EMD 121974 Concentrations: 240.00 ng/mL
Rate 1 mg/h, 170 h, listed as EMD 121974
  EMD 121974 Concentrations: 156.00 ng/mL and 10.30 ng/mL
Rate 1 mg/h, 336 h, listed as EMD 121974
  EMD 121974 Concentrations: 324.00 ng/mL and 172.00 ng/mL
Rate 1 mg/h, 338 h, listed as EMD 121974
  EMD 121974 Concentrations: 321.00 ng/mL and 153.00 ng/mL
[1]
  CL: 3.84 L/h and 10.17 L/h and 10.93 L/h
  V: 22.2 L and 58.7 L and 63.1 L
  Css: 260.3 ng/mL and 98.4 ng/mL and 91.5 ng/mL
Rate 1 mg/h
  V, Mean: 48.0 L
  ke, Mean: 0.173 h⁻¹
  ke: 0.173 h⁻¹
Rate 2 mg/h, 0 h (pre-dose)
  EMD 121974 Concentrations: Undetectable
Rate 2 mg/h, 2 h, listed as EMD 121974
  EMD 121974 Concentrations: 162.00 ng/mL and Undetectable
Rate 2 mg/h, 168 h, listed as EMD 121974
  EMD 121974 Concentrations: 189.00 ng/mL and 498.00 ng/mL
Rate 2 mg/h, 170 h
  EMD 121974 Concentrations: 316.00 ng/mL
Rate 2 mg/h, 170 h, listed as EMD 121974
  EMD 121974 Concentrations: 244.00 ng/mL
Rate 2 mg/h, 336 h, listed as EMD 121974
  EMD 121974 Concentrations: 467.00 ng/mL and 523.00 ng/mL
Rate 2 mg/h, 338 h, listed as EMD 121974
  EMD 121974 Concentrations: 327.00 ng/mL and 392.00 ng/mL
Rate 2 mg/h, 504 h, listed as EMD 121974
  EMD 121974 Concentrations: 268.00 ng/mL and 485.00 ng/mL
Rate 2 mg/h, 506 h, listed as EMD 121974
  EMD 121974 Concentrations: 247.00 ng/mL and 427.00 ng/mL
[2]
  CL: 4.54 L/h
  V: 39.8 L and 26.2 L
  Css: 290.3 ng/mL and 440.2 ng/mL
Rate 2 mg/h
  V, Mean: 33.0 L
  ke, Mean: 0.173 h⁻¹
  ke: 0.173 h⁻¹
Rate 4 mg/h, 0 h (pre-dose)
  EMD 121974 Concentrations: Undetectable
Rate 4 mg/h, 2 h, listed as EMD 121974
  EMD 121974 Concentrations: 228.00 ng/mL and 303.00 ng/mL and 454.00 ng/mL
Rate 4 mg/h, 168 h, listed as EMD 121974
  EMD 121974 Concentrations: 467.00 ng/mL and 517.00 ng/mL and 894.00 ng/mL
Rate 4 mg/h, 170 h, listed as EMD 121974
  EMD 121974 Concentrations: 408.00 ng/mL and 372.00 ng/mL and 843.00 ng/mL and 439.00 ng/mL
Rate 4 mg/h, 336 h, listed as EMD 121974
  EMD 121974 Concentrations: 606.00 ng/mL and 847.00 ng/mL
Rate 4 mg/h, 338 h, listed as EMD 121974
  EMD 121974 Concentrations: 283.00 ng/mL and 644.00 ng/mL and 711.00 ng/mL and 597.00 ng/mL
Rate 4 mg/h, 504 h, listed as EMD 121974
  EMD 121974 Concentrations: 1170.00 ng/mL and 524.00 ng/mL and 482.00 ng/mL and 485.00 ng/mL
Rate 4 mg/h, 506 h, listed as EMD 121974
  EMD 121974 Concentrations: 776.00 ng/mL and 649.00 ng/mL and 618.00 ng/mL
[3]
  CL: 7.51 L/h and 5.96 L/h and 6.19 L/h
  V: 37.2 L and 43.3 L and 34.4 L and 35.7 L
  Css: 620.8 ng/mL and 532.6 ng/mL and 671.3 ng/mL and 646.7 ng/mL
Rate 4 mg/h
  V, Mean: 37.7 L
  ke, Mean: 0.173 h⁻¹
  ke: 0.173 h⁻¹
Rate 8 mg/h, 0 h (pre-dose)
  EMD 121974 Concentrations: Undetectable
Rate 8 mg/h, 2 h, listed as EMD 121974
  EMD 121974 Concentrations: 603.00 ng/mL and 445.00 ng/mL and 462.00 ng/mL
Rate 8 mg/h, 168 h, listed as EMD 121974
  EMD 121974 Concentrations: 1310.00 ng/mL and 881.00 ng/mL and 2190.00 ng/mL
Rate 8 mg/h, 170 h, listed as EMD 121974
  EMD 121974 Concentrations: 862.00 ng/mL and 958.00 ng/mL and 1820.00 ng/mL
Rate 8 mg/h, 336 h
  EMD 121974 Concentrations: 525.00 ng/mL
Rate 8 mg/h, 338 h, listed as EMD 121974
  EMD 121974 Concentrations: 424.00 ng/mL and 1520.00 ng/mL
Rate 8 mg/h, 504 h, listed as EMD 121974
  EMD 121974 Concentrations: 1610.00 ng/mL and 1440.00 ng/mL and 1830.00 ng/mL
Rate 8 mg/h, 506 h, listed as EMD 121974
  EMD 121974 Concentrations: 1590.00 ng/mL and 771.00 ng/mL and 1500.00 ng/mL
[4]
  CL: 5.96 L/h and 9.60 L/h and 4.51 L/h
  V: 34.4 L and 55.4 L and 26.1 L
  Css: 1343.0 ng/mL and 833.2 ng/mL and 1772.0 ng/mL
Rate 8 mg/h
  V, Mean: 38.6 L
  ke, Mean: 0.173 h⁻¹
  ke: 0.173 h⁻¹
Rate 12 mg/h, 0 h (pre-dose)
  EMD 121974 Concentrations: Undetectable
Rate 12 mg/h, 2 h, listed as EMD 121974
  EMD 121974 Concentrations: 722.00 ng/mL and 303.00 ng/mL and 472.00 ng/mL
Rate 12 mg/h, 168 h, listed as EMD 121974
  EMD 121974 Concentrations: 777.00 ng/mL and 2550.00 ng/mL and 1980.00 ng/mL
Rate 12 mg/h, 170 h, listed as EMD 121974
  EMD 121974 Concentrations: 1130.00 ng/mL and 1770.00 ng/mL and 1340.00 ng/mL
